US11254654B2, “Heterochromatin gene repression inhibitors” (The University of North Carolina at Chapel Hill, priority 2017, dated 2022)
Where a name gives a salt, the structure may show the parent alone.

Columns and labels:
Assay type in all cases: cell-based, mouse
[1] = tested on: HP1-mediated gene repression; experiment: UNC2524 structure-activity relationship assay, CiA:Oct4 N118/N163 flow cytometry; settings: 10 μM, 48 hrs
Procedure: Day 0, CiA:Oct4 N118/163 cells were grown in ES media and seeded at a density of 10,000 cells per well (100,000 cells/mL) into gelatin coated 96 well plates. Day 1, media was aspirated and replaced with 100 μL fresh ES media containing +/−6 nM rapamycin and 10 μM of each compound derived for SAR. Day 2, culture media was aspirated away and […] fresh ES media containing +/−6 nM rapamycin and 10 μM of compounds were added as on Day 1. Day 3, the media was aspirated out of the wells and the cells were washed with PBS and trypsinized using 0.25% trypsin-EDTA. Trypsin was quenched with serum. Cells were resuspended by pipetting to prepare the plates for flow cytometry analysis as described above.
Compounds 2-8 were chemically synthesized from UNC2524 (compound 1) (FIG. 10A). To ascertain the biological activity of these chemical derivatives, CiA:Oct4 N118/N163 cells were used. Cells were treated with rapamycin plus compounds 2 and 5-8 for 48-hours prior to analysis by flow cytometry. Compound activity was confirmed by an increase in % inhibition compared to control samples. Compounds 5 and 6 added a pentenal chain and BOC group to the piperidine ring while compound 7 substituted a hexyl chain for the pyrrolidine. […] Further, it was identified that the 7-methoxy side chain was amenable to modification with a benzene ring in compound 8, while preserving most of the biological activity (˜51%).
Referring to FIG. 10A, a series of compounds derived from compound 1 (UNC2524) were designed to optimize compound activity and determine amenability of compounds for affinity purification methods. Referring to FIG. 10B, CiA:Oct4 N118/N163 cells were treated with SAR compounds at 10 μM for 48 hrs+/−6 nM rapamycin. Flow cytometry analysis was used to determine the % GFP (+) population. […] (p≤0.05*, 0.01**).

CiA:Oct4 N118/N163 cells = experiment: Compound 2 activity and fluorescence microscopy; settings: 7.5 μM, 48 hrs
Procedure: Day 0, CiA:Oct4 N118/N163 cells were plated into 96 well plate and 10 or 15 cm plate formats. Day 1, media was aspirated and replaced with fresh ES media +/−7.5 μM compound 2+/−6 nM rapamycin. Day 2, media was aspirated and replaced with fresh ES media +/−7.5 μM compound 2+/−6 nM rapamycin. Day 3, media was removed from 96 well plate and cells were washed with PBS prior to trypsinization and flow cytometry analysis as described above to confirm functional inhibition of compound 2.
Prior to imaging, ES media was removed from 10-15 cm plates and replaced with PBS to decrease background fluorescence. Cells were imaged using an Olympus IX71 microscope analyzed using Cellsens software. Representative images were taken in 2 random plate locations for each of the four conditions. Image levels were normalized using Adobe Photoshop.
In order to confirm that compound 2 was inhibiting H3K9me3 deposition, CiA:Oct4 N118/N163 cells were grown for 48-hours with rapamycin mediating HP1 recruitment, +/−compound 2 (FIG. 11G). Representative brightfield and fluorescence images were taken for the four sample types ((−) rapamycin/(−) compound 2, (−) rapamycin/(+) compound 2, (+) rapamycin/(−) compound 2, (+) rapamycin/(+) compound 2). […] Subsequently, all samples were analyzed by flow cytometry to confirm the inhibitory effects of compound 2 on HP1-mediated gene repression. […]

H3K9me3 = experiment: ChIP-qPCR at CiA:Oct4 locus, TSS+489; settings: 48 hr, + 6 nM rapamycin, 489 bp downstream of TSS
Procedure: 10-15 cm plates of cells grown to confluence were washed with PBS and trypsinized 10 min with 0.25% trypsin-EDTA. ES media was added to quench the trypsin, and cells were resuspended prior to counting using a Countess II Automated Cell Counter (ThermoFisher). Cell suspension was centrifuged at 300×g for 5 min. Cell pellet was washed with PBS and pelleted at 300×g for 5 min. Cells were resuspended and crosslinked with 1% formaldehyde for 10 min. 2.5 M glycine (0.125 M final) was added and samples were put on ice to stop the crosslinking. […]
Enrichment of ChIP DNA was determined by qPCR. […] Samples were analyzed using the comparative ΔΔCt method and normalized against an intergenic control region (Hathaway et al., 2012; Livak & Schmittgen, 2001). […]
Chromatin immunoprecipitation (ChIP) was used to determine the levels of H3K9me3 at the Oct4 locus upon treatment with compound 2. […] For this reason, the levels of H3K9me3 were analyzed at 489 bp downstream of the TSS in all four sample conditions. qPCR was used to amplify this region in addition to an intergenic control region. […]
(§1) Referring to FIG. 11A, CiA:Oct4 csHP1α recruiting cells were incubated with 7.5 μM compound 2+/−6 nM rapamycin for 48 hrs and representative brightfield and GFP fluorescence images were acquired at 20×. […] GFP expression was analyzed by flow cytometry. […]

HP1γ = experiment: ChIP-qPCR at CiA:Oct4 locus, TSS+489
Procedure: (§2) 10-15 cm plates of cells grown to confluence were washed with PBS and trypsinized 10 min with 0.25% trypsin-EDTA. ES media was added to quench the trypsin, and cells were resuspended prior to counting using a Countess II Automated Cell Counter (ThermoFisher). Cell suspension was centrifuged at 300×g for 5 min. Cell pellet was washed with PBS and pelleted at 300×g for 5 min. Cells were resuspended and crosslinked with 1% formaldehyde for 10 min. 2.5 M glycine (0.125 M final) was added and samples were put on ice to stop the crosslinking. Nuclei were isolated by incubating cells on ice for 10 min in CiA NP Rinse 1 (50 mM HEPES pH 8.0, 140 mM NaCl, 1 mM EDTA, 10% glycerol, 0.5% NP40, 0.25% Triton X100). Nuclei were pelleted at 1200×g for 5 min at 4° C. and resuspended in CiA NP Rinse 2 (10 mM Tris pH 8.0, 1 mM EDTA, 0.5 mM EGTA, 200 mM NaCl). Nuclei were pelleted at 1200×g for 5 min at 4° C. Nuclei were resuspended in shearing buffer (0.1% SDS, 1 mM EDTA pH 8, 10 mM Tris HCl, pH 8) and sonicated for 5 min using a Covaris sonicator (Hathaway et al., 2012). Input DNA and ChIP DNA was isolated according to Active Motif High Sensitivity ChIP-IT kit procedure. ChIP for H3K9me3 used Abcam (ab8898) primary antibody.
(§3) Enrichment of ChIP DNA was determined by qPCR. 384-well PCR plates contained 2 μL of template DNA and 8 μL of reaction mix of primers and FastStart Universal SYBR Green 2× master mix (Roche). Samples were run on a ViiA7 Real-Time PCR system (Applied Biosystems) (Pattenden et al., 2016). Plates were setup in technical duplicate or triplicate. Samples were analyzed using the comparative ΔΔCt method and normalized against an intergenic control region (Hathaway et al., 2012; Livak & Schmittgen, 2001). Experiment was performed in a minimum biological triplicate and data is representative of sample average. T-test were used to determine significant p-values.
(§4) To further characterize the effects of compound 2 on the HP1-heterochromatin pathway, perturbations in the levels of HP1γ, H3K4me3, and G9a at the CiA:Oct4 locus were assayed for using ChIP followed by […] analysis. Enrichment levels were determined at 489 bp downstream of the TSS and normalized to a house-keeping gene, intracisternal A-type particles (IAP). As shown previously, HP1γ functions similarly to HP1α in our inhibition assay. […] No change in H3K4me3 levels were detected upon compound 2 treatment despite the decrease in H3K9me3 (FIG. 11E). […]
as §1

H3K4me3 = experiment: ChIP-qPCR at CiA:Oct4 locus, TSS+489; settings: 48 hr treatment, +/- rapamycin
Procedure: as §2, §3, §4, §1

G9a = experiment: ChIP-qPCR at CiA:Oct4 locus, TSS+489; settings: four treatment conditions
Procedure: as §2, §3, §4, §1

COc1cc2nc(N3CCCC3)nc(N[C@@H]3CCCN(C(=O)OC(C)(C)C)C3)c2cc1OC [compound 6, Tert-Butyl (R)-3-((6,7-Dimethoxy-2-(Pyrrolidin-1-yl)Quinazolin-4-yl)Amino)Piperidine-1-Carboxylate]
% inhibition compared with parent compound 1 ([1]; + 6 nM rapamycin): decrease in inhibition

CCCCCCNc1nc(N[C@H]2CCCNC2)c2cc(OC)c(OC)cc2n1 [compound 7, (S)—N^2-Hexyl-6,7-Dimethoxy-N^4-(Piperidin-3-yl)Quinazoline-2,4-Diamine]
Toxicity in SAR assay [1]: toxicity and low cell counts | % inhibition compared with parent compound 1 ([1]; + 6 nM rapamycin): decrease in inhibition

COc1cc2nc(N3CCCC3)nc(N[C@@H]3CCCNC3)c2cc1OC [compound 2, (R)-6,7-Dimethoxy-N-(Piperidin-3-yl)-2-(Pyrrolidin-1-yl)Quinazolin-4-Amine Trifluoroacetic Acid Salt]
ES cell differentiation and colony morphology (CiA:Oct4 N118/N163 cells; +/- 6 nM rapamycin): did not result in gross cell differentiation or effect colony morphology | GFP expression by flow cytometry compared to untreated controls (CiA:Oct4 N118/N163 cells; with and without rapamycin): increased GFP expression | Decrease of H3K9me3 enrichment compared to plus rapamycin control (H3K9me3): ~9 fold | % inhibition compared with parent compound 1 ([1]; + 6 nM rapamycin): increase in activity over the parent | Increase of HP1γ levels compared to controls (HP1γ; compound alone, no HP1 recruitment): 46% | Decrease of HP1γ levels compared to HP1 recruitment alone (HP1γ; with HP1 recruitment (rapamycin)): 37% | Change in H3K4me3 levels (H3K4me3): No change | Change in G9a levels (G9a): No significant changes

COc1cc2c(N[C@H]3CCCNC3)nc(N3CCCC3)nc2cc1OCCCN1CCCCC1 [compound 8, (S)-6-Methoxy-7-(3-(Piperidin-1-yl)Propoxy)-N-(Piperidin-3-yl)-2-(Pyrrolidin-1-yl)Quinazolin-4-Amine Trifluoroacetic Acid Salt]
Biological activity preserved ([1]; + 6 nM rapamycin): ~51%

C=CCCCN1CCC[C@H](Nc2nc(N3CCCC3)nc3cc(OC)c(OC)cc23)C1 [compound 5, (S)-6,7-Dimethoxy-N-(1-(Pent-4-en-1-yl)Piperidin-3-yl)-2-(Pyrrolidin-1-yl)Quinazolin-4-Amine, Trifluoroacetic Acid Salt]
% inhibition compared with parent compound 1 ([1]; + 6 nM rapamycin): decrease in inhibition
